Source: patent US11214594B2, “Antimicrobial peptide having synergistic antibacterial effect with antibiotics on multidrug resistant bacteria, and use thereof” (priority 2016, dated 2022)
≈ marks a conversion by molar mass, not a printed value. Like-named read-outs stand apart in the source and are kept apart here. Where a SMILES comes first, the peptide text is derived from it.

Tests used:
E. coli [1] = assay: microbe, parasite or virus in culture; format: cell-based, Escherichia coli
Outline: (§1)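 Peptides were serially diluted twofold in Mueller-Hinton medium and combined 1:1 with bacterial suspensions prepared at 2×10^6 CFU. Readout was the minimal inhibitory concentration, i.e. the lowest concentration with no growth.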

MDREC 1229 [2] = assay: microbe, parasite or virus in culture; format: cell-based, Escherichia coli
Outline: as §1

P. aeruginosa = assay: microbe, parasite or virus in culture; format: cell-based, Pseudomonas aeruginosa
Outline: as §1

S. aureus = assay: microbe, parasite or virus in culture; format: cell-based, Staphylococcus aureus
Outline: as §1

E. coli [3] = assay: MIC of antibiotic during combined treatment with antimicrobial peptide; format: cell-based, Escherichia coli; conditions: for Antibiotic MIC, Erythromycin / Antibiotic MIC, Linezolid / Antibiotic MIC, Vancomycin: E. coli
Outline: (§2)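 Using MH broth, we determined combination MICs by titrating the antibiotic into wells and then repeating under the reverse dilution scheme.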

MDRAB 12035 [4] = assay: microbe, parasite or virus in culture; format: cell-based, Acinetobacter baumannii
Outline: as §1

A. baumannii [5] = assay: microbe, parasite or virus in culture; format: cell-based, Acinetobacter baumannii
Outline: as §1

MDRST 8009 = format: cell-based, Salmonella typhimurium; conditions: agent alone
Outline: as §1

S. epidermidis = assay: microbe, parasite or virus in culture; format: cell-based, Staphylococcus epidermidis
Outline: as §1

A. baumannii [6] = assay: MIC of antibiotic during combined treatment with antimicrobial peptide; format: cell-based, Acinetobacter baumannii; conditions: for Antibiotic MIC, Erythromycin / Antibiotic MIC, Linezolid / Antibiotic MIC, Vancomycin: A. baumannii
Outline: as §2

B. subtilis = assay: microbe, parasite or virus in culture; format: cell-based, Bacillus subtilis
Outline: as §1

MDRAB 12035 [7] = assay: MIC of antimicrobial peptide during combined treatment with antibiotic; format: cell-based, Acinetobacter baumannii
Outline: (§3)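 Broth microdilution in MH medium; strains were diluted to 2×10^6 CFU per ml before plating. Peptide was serially diluted stepwise at 2:1 starting from its MIC, and MH-diluted antibiotic was then added to determine MIC. The reversed arrangement was also tested.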

A. baumannii [8] = assay: as above; format: cell-based, Acinetobacter baumannii
Outline: as §3

E. coli [9] = format: cell-based, Escherichia coli; conditions: E. coli
Outline: as §3

MDREC 1229 [10] = format: cell-based, Escherichia coli
Outline: as §3

[11] = combined with peptide at 1 μg/ml
[12] = combined with peptide at 2 μg/ml
[13] = combined with peptide at 4 μg/ml
[14] = combined with peptide at 6 μg/ml
[15] = combined with peptide at 8 μg/ml
[16] = combined with peptide at 16 μg/ml
[17] = combined with peptide at 32 μg/ml
[18] = combined with peptide at 64 μg/ml
[19] = erythromycin 4 μg/ml (Conc./MIC 1/8)
[20] = erythromycin 8 μg/ml (Conc./MIC 1/4)
[21] = erythromycin 16 μg/ml (Conc./MIC 1/2)
[22] = erythromycin 32 μg/ml (Conc./MIC 1)
[23] = vancomycin 512 μg/ml (Conc./MIC 1/2)
[24] = vancomycin 1024 μg/ml (Conc./MIC 1)
[25] = with Erythromycin […] (Conc./MIC 1)

CC[C@H](C)[C@H](NC(=O)[C@H](CCCCN)NC(=O)[C@H](Cc1c[nH]c2ccccc12)NC(=O)[C@@H](N)CCCNC(=N)N)C(=O)N[C@@H](Cc1ccccc1)C(=O)N[C@@H](CCCCN)C(=O)N[C@@H](CCCCN)C(=O)N[C@H](C(=O)N1CCC[C@H]1C(=O)N[C@@H](CCCCN)C(=O)N[C@@H](CC(C)C)C(=O)N[C@@H](CC(C)C)C(=O)N[C@@H](Cc1c[nH]cn1)C(=O)N[C@@H](CO)C(=O)N[C@@H](CC(C)C)C(=O)N[C@@H](CCCCN)C(=O)N[C@@H](CCCCN)C(=O)N[C@@H](Cc1ccccc1)C(N)=O)[C@@H](C)CC [PapMA-8, RWK IFK KIP KLL HSL KKF-NH2] (H-RWKIFKKIPKLLHSLKKF-NH2; N-terminus assumed)
Minimal inhibitory concentration MIC (E. coli [1]; 16 h): 32 µg/mL (≈ 13.9 µM)
Antibacterial activity relative to PapMA-1 (E. coli [1]; E. coli): at least twice as high
Minimal inhibitory concentration MIC (MDREC 1229 [2]): 64 µg/mL (≈ 27.7 µM)
Minimal inhibitory concentration MIC (P. aeruginosa): 16 µg/mL (≈ 6.93 µM)
Antibacterial activity (in words) (P. aeruginosa; P. aeruginosa and S. typhimurium): significantly increased
Minimal inhibitory concentration MIC (S. aureus): >128 µg/mL
Synergistic effect of antibacterial activity with existing antibiotics compared with PapMA-1 (E. coli [3]; E. coli and MDREC1229): higher level than the PapMA-1 peptide
Antibiotic MIC, Erythromycin (E. coli [3]; erythromycin combined with peptide at 1 μg/ml): 128 µg/mL
Antibiotic MIC, Erythromycin (E. coli [3]; erythromycin combined with peptide at 2 μg/ml): 64 µg/mL
Antibiotic MIC, Erythromycin (E. coli [3]; erythromycin combined with peptide at 4 μg/ml): 8 µg/mL
Antibiotic MIC, Erythromycin (E. coli [3]; erythromycin combined with peptide at 6 μg/ml): 4 µg/mL
Antibiotic MIC, Erythromycin (E. coli [3]; erythromycin combined with peptide at 8 μg/ml): 0.5 µg/mL
Antibiotic MIC, Erythromycin (E. coli [3]; erythromycin combined with peptide at 16 μg/ml): 0.25 µg/mL
Antibiotic MIC, Erythromycin (E. coli [3]; erythromycin combined with peptide at 32 μg/ml): 0 µg/mL
Antibiotic MIC, Erythromycin (E. coli [3]; erythromycin combined with peptide at 64 μg/ml): 0 µg/mL
Antibiotic MIC, Linezolid (E. coli [3]; linezolid combined with peptide at 1 μg/ml): >128 µg/mL
Antibiotic MIC, Linezolid (E. coli [3]; linezolid combined with peptide at 2 μg/ml): >128 µg/mL
Antibiotic MIC, Linezolid (E. coli [3]; linezolid combined with peptide at 4 μg/ml): 128 µg/mL
Antibiotic MIC, Linezolid (E. coli [3]; linezolid combined with peptide at 6 μg/ml): 32 µg/mL
Antibiotic MIC, Linezolid (E. coli [3]; linezolid combined with peptide at 8 μg/ml): 8 µg/mL
Antibiotic MIC, Linezolid (E. coli [3]; linezolid combined with peptide at 16 μg/ml): 2 µg/mL
Antibiotic MIC, Linezolid (E. coli [3]; linezolid combined with peptide at 32 μg/ml): 0 µg/mL
Antibiotic MIC, Linezolid (E. coli [3]; linezolid combined with peptide at 64 μg/ml): 0 µg/mL
Antibiotic MIC, Vancomycin (E. coli [3]; vancomycin combined with peptide at 1 μg/ml): >128 µg/mL
Antibiotic MIC, Vancomycin (E. coli [3]; vancomycin combined with peptide at 2 μg/ml): >128 µg/mL
Antibiotic MIC, Vancomycin (E. coli [3]; vancomycin combined with peptide at 4 μg/ml): 64 µg/mL
Antibiotic MIC, Vancomycin (E. coli [3]; vancomycin combined with peptide at 6 μg/ml): 32 µg/mL
Antibiotic MIC, Vancomycin (E. coli [3]; vancomycin combined with peptide at 8 μg/ml): 16 µg/mL
Antibiotic MIC, Vancomycin (E. coli [3]; vancomycin combined with peptide at 16 μg/ml): 2 µg/mL
Antibiotic MIC, Vancomycin (E. coli [3]; vancomycin combined with peptide at 32 μg/ml): 0 µg/mL
Antibiotic MIC, Vancomycin (E. coli [3]; vancomycin combined with peptide at 64 μg/ml): 0 µg/mL
Minimal inhibitory concentration MIC (MDRAB 12035 [4]): 64 µg/mL (≈ 27.7 µM)
Peptide MIC, peptide alone (MDRAB 12035 [4]): 64 µg/mL
Minimal inhibitory concentration MIC (A. baumannii [5]): 32 µg/mL (≈ 13.9 µM)
Peptide MIC, peptide alone (A. baumannii [5]): 32 µg/mL
Minimal inhibitory concentration MIC (MDRST 8009): 64 µg/mL (≈ 27.7 µM)
Minimal inhibitory concentration MIC (S. epidermidis): >128 µg/mL
Synergistic effect of antibacterial activity with existing antibiotics compared with PapMA-1 (A. baumannii [6]; A. baumannii and MDRAB 12035): higher level than the PapMA-1 peptide
Antibiotic MIC, Erythromycin (A. baumannii [6]; [11]): 32 µg/mL
Antibiotic MIC, Linezolid (A. baumannii [6]; [11]): >128 µg/mL
Antibiotic MIC, Vancomycin (A. baumannii [6]; [11]): >128 µg/mL
Antibiotic MIC, Erythromycin (A. baumannii [6]; [12]): 8 µg/mL
Antibiotic MIC, Linezolid (A. baumannii [6]; [12]): 64 µg/mL
Antibiotic MIC, Vancomycin (A. baumannii [6]; [12]): >128 µg/mL
Antibiotic MIC, Erythromycin (A. baumannii [6]; [13]): 4 µg/mL
Antibiotic MIC, Linezolid (A. baumannii [6]; [13]): 32 µg/mL
Antibiotic MIC, Vancomycin (A. baumannii [6]; [13]): 32 µg/mL
Antibiotic MIC, Erythromycin (A. baumannii [6]; [14]): 4 µg/mL
Antibiotic MIC, Linezolid (A. baumannii [6]; [14]): 16 µg/mL
Antibiotic MIC, Vancomycin (A. baumannii [6]; [14]): 16 µg/mL
Antibiotic MIC, Erythromycin (A. baumannii [6]; [15]): 0.25 µg/mL
Antibiotic MIC, Linezolid (A. baumannii [6]; [15]): 4 µg/mL
Antibiotic MIC, Vancomycin (A. baumannii [6]; [15]): 8 µg/mL
Antibiotic MIC, Erythromycin (A. baumannii [6]; [16]): 0.125 µg/mL
Antibiotic MIC, Linezolid (A. baumannii [6]; [16]): 1 µg/mL
Antibiotic MIC, Vancomycin (A. baumannii [6]; [16]): 4 µg/mL
Antibiotic MIC, Erythromycin (A. baumannii [6]; [17]): 0 µg/mL
Antibiotic MIC, Linezolid (A. baumannii [6]; [17]): 0 µg/mL
Antibiotic MIC, Vancomycin (A. baumannii [6]; [17]): 0 µg/mL
Antibiotic MIC, Erythromycin (A. baumannii [6]; [18]): 0 µg/mL
Antibiotic MIC, Linezolid (A. baumannii [6]; [18]): 0 µg/mL
Antibiotic MIC, Vancomycin (A. baumannii [6]; [18]): 0 µg/mL
Minimal inhibitory concentration MIC (B. subtilis): >128 µg/mL
Peptide MIC during treatment with erythromycin (MDRAB 12035 [7]; [19]): 8 µg/mL
Peptide MIC during treatment with erythromycin (MDRAB 12035 [7]; [20]): 8 µg/mL
Peptide MIC during treatment with erythromycin (MDRAB 12035 [7]; [21]): 4 µg/mL
Peptide MIC during treatment with erythromycin (MDRAB 12035 [7]; [22]): 0 µg/mL
Peptide MIC during treatment with linezolid (MDRAB 12035 [7]; linezolid 64 μg/ml (Conc./MIC 1/8)): 4 µg/mL
Peptide MIC during treatment with linezolid (MDRAB 12035 [7]; linezolid 512 μg/ml (Conc./MIC 1)): 0 µg/mL
Peptide MIC during treatment with linezolid (MDRAB 12035 [7]; linezolid […] (Conc./MIC 1/2)): 1 µg/mL
Peptide MIC during treatment with linezolid (MDRAB 12035 [7]; linezolid […] (Conc./MIC 1/4)): 2 µg/mL
Peptide MIC during treatment with vancomycin (MDRAB 12035 [7]; [23]): 2 µg/mL
Peptide MIC during treatment with vancomycin (MDRAB 12035 [7]; [24]): 1 µg/mL
Peptide MIC during treatment with vancomycin (MDRAB 12035 [7]; vancomycin […] (Conc./MIC 1/4)): 2 µg/mL
Peptide MIC during treatment with vancomycin (MDRAB 12035 [7]; vancomycin […] (Conc./MIC 1/8)): 4 µg/mL
Peptide MIC during treatment with antibiotic (A. baumannii [8]; [19]): 4 µg/mL
Peptide MIC during treatment with antibiotic (A. baumannii [8]; [20]): 4 µg/mL
Peptide MIC during treatment with antibiotic (A. baumannii [8]; [21]): 2 µg/mL
Peptide MIC during treatment with antibiotic (A. baumannii [8]; [22]): 0 µg/mL
Peptide MIC during treatment with antibiotic (A. baumannii [8]; linezolid 32 μg/ml (Conc./MIC 1/8)): 4 µg/mL
Peptide MIC during treatment with antibiotic (A. baumannii [8]; linezolid 64 μg/ml (Conc./MIC 1/4)): 2 µg/mL
Peptide MIC during treatment with antibiotic (A. baumannii [8]; linezolid […] (Conc./MIC 1)): 0 µg/mL
Peptide MIC during treatment with antibiotic (A. baumannii [8]; linezolid […] (Conc./MIC 1/2)): 2 µg/mL
Peptide MIC during treatment with antibiotic (A. baumannii [8]; [23]): 1 µg/mL
Peptide MIC during treatment with antibiotic (A. baumannii [8]; [24]): 0 µg/mL
Peptide MIC during treatment with antibiotic (A. baumannii [8]; vancomycin […] (Conc./MIC 1/4)): 1 µg/mL
Peptide MIC during treatment with antibiotic (A. baumannii [8]; vancomycin […] (Conc./MIC 1/8)): 4 µg/mL
Peptide MIC (E. coli [9]; [25]): 0 µg/mL
Peptide MIC (E. coli [9]; with Linezolid […] (Conc./MIC 1)): 0 µg/mL
Peptide MIC (E. coli [9]; with Vancomycin 1024 μg/ml (Conc./MIC 1)): 0 µg/mL
Peptide MIC (MDREC 1229 [10]; [25]): 0 µg/mL
Peptide MIC (MDREC 1229 [10]; with Linezolid 512 μg/ml (Conc./MIC 1)): 0 µg/mL
